Assay [1] has as its target Coagulation factor X (Homo sapiens, UniProt P00742). Kind of assay: Compound was evaluated for the inhibitory activity against Coagulation factor X.
For assay [2], the target named is Plasminogen (Homo sapiens, UniProt P00747). Kind of assay: Compound was evaluated for the inhibitory activity against plasmin.
Assay [3] has as its target T1, Tissue-type plasminogen activator (Homo sapiens, UniProt P00750). Nature of the assay: Compound was evaluated for the inhibitory activity against t-PA.
Assay [4] deals with Vitamin K-dependent protein C (Homo sapiens, UniProt P04070). Kind of assay: Compound was evaluated for the inhibitory activity against Activated protein C.
Chain of Vitamin K-dependent protein C (P04070 43-197 limits assumed): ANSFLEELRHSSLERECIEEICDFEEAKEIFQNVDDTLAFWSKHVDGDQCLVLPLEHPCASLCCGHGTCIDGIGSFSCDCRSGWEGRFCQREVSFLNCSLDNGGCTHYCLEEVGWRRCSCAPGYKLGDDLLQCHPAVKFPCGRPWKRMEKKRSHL
Chain of Vitamin K-dependent protein C (P04070 212-461 limits assumed): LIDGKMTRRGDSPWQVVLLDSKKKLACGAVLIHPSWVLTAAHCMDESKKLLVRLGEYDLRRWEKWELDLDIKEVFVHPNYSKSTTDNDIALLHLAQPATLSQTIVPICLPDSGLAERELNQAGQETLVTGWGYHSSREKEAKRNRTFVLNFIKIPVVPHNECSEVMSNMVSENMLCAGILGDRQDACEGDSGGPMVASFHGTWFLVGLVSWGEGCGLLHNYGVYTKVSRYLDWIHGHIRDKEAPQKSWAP
Assay [5] concerns the target Prothrombin (Homo sapiens, UniProt P00734). Kind of assay: Compound was evaluated for the inhibitory activity against thrombin.
Assay [6] deals with T2, Serine protease 1 (Homo sapiens, UniProt P07477). Kind of assay: Compound was evaluated for the inhibitory activity against trypsin.
T2 sequence (P07477 whole entry): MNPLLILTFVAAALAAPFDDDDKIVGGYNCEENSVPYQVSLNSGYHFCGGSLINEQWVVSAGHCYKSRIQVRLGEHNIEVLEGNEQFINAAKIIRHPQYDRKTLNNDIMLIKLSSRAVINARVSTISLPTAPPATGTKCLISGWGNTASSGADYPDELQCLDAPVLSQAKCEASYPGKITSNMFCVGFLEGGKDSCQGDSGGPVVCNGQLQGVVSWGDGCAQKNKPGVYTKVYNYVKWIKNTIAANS
In assay [7] the target is T2, Serine protease 1. Kind of assay: Compound was evaluated for the inhibitory activity against trypsin.
In assay [8] the target is T1, Tissue-type plasminogen activator. Nature of the assay: Compound was evaluated for the inhibitory activity against t-PA.

Structures are written as SMILES.

Chain of Coagulation factor X (P00742 41-179 limits assumed): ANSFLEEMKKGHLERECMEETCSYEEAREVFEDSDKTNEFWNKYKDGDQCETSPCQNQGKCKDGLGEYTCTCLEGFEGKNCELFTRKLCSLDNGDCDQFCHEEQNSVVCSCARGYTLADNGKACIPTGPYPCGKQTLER
Chain of Coagulation factor X (P00742 235-488 limits assumed): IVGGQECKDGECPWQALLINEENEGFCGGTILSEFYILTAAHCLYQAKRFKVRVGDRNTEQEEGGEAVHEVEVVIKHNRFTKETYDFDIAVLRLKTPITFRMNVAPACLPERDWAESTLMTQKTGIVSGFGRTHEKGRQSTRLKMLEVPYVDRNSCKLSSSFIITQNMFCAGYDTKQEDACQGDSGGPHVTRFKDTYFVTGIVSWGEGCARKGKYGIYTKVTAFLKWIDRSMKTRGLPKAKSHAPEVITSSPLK
Chain of Plasminogen (P00747 97-580 limits assumed): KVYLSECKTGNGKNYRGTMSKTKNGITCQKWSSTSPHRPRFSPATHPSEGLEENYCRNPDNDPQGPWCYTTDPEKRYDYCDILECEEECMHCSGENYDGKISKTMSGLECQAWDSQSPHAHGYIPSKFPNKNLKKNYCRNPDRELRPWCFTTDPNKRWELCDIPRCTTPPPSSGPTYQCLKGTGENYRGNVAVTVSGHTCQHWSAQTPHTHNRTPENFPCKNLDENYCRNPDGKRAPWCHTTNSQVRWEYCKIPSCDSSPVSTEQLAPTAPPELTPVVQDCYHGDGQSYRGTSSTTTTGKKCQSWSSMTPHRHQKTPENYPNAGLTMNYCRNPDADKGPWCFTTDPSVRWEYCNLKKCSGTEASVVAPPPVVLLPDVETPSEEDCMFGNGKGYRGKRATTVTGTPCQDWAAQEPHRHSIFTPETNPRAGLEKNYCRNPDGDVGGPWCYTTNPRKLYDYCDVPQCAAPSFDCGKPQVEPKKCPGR
Chain of Plasminogen (P00747 581-810 limits assumed): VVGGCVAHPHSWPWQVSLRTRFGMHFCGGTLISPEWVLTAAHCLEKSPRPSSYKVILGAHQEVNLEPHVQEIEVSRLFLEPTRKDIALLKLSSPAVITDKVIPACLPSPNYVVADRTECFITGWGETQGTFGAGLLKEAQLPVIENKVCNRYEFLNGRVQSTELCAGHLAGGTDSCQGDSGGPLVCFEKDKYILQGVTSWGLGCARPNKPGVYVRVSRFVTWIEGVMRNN
T1 sequence (P00750 whole entry): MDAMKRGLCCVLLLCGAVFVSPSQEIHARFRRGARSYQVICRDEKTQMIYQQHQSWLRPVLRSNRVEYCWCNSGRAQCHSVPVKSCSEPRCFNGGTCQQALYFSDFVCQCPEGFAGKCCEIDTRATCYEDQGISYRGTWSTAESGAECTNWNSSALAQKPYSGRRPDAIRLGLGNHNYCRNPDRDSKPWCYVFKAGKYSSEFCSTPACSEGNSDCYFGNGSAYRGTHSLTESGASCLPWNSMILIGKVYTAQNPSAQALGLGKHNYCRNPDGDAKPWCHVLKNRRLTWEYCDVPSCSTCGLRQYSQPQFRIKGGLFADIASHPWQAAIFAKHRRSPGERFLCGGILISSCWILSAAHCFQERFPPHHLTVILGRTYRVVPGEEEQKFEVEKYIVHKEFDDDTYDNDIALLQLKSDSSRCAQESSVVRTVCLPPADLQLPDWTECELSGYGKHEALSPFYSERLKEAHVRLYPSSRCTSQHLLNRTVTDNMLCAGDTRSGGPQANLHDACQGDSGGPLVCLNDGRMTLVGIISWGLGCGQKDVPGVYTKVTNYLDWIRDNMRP

By Ki is commonly meant a dissociation constant, usually derived from enzyme kinetics or from competition with a known ligand. `O=C(CN1CCN(S(=O)(=O)c2cc3ccc(Cl)cc3s2)CC1=O)NCCCn1ccnc1` displayed a Ki in assay [1] of more than 1200 nM. Regarding `Nc1nc(CCNC(=O)CN2CCN(S(=O)(=O)c3cc4ccc(Cl)cc4s3)CC2=O)cs1`, the affinity in assay [1], expressed as Ki, was 620 nM. `O=C(CN1CCN(S(=O)(=O)c2cc3ccc(Cl)cc3s2)CC1=O)NCCc1ccncc1` yielded a Ki in assay [1] of 59 nM. For the compound `Cc1ncsc1CCNC(=O)CN1CCN(S(=O)(=O)c2cc3ccc(Cl)cc3s2)CC1=O`, the inhibition constant Ki in assay [1] is 270 nM. Still for that read-out and setting: in the case of `O=C(CN1CCN(S(=O)(=O)c2cc3ccc(Cl)cc3s2)CC1=O)Nc1ccccc1` it was more than 1200 nM; in that of `O=C(CN1CCN(S(=O)(=O)c2cc3ccc(Cl)cc3s2)CC1=O)NCCn1ccnc1`, more than 1200 nM. `O=C(CN1CCN(S(=O)(=O)c2cc3ccc(Cl)cc3s2)CC1=O)Nc1ccncn1`: in assay [1], affinity was put at a Ki of 97 nM. On the same count and under the same terms, for `O=C(CN1CCN(S(=O)(=O)c2cc3ccc(Cl)cc3s2)CC1=O)Nc1cccnc1` the value was more than 1200 nM; for `O=C(CN1CCN(S(=O)(=O)c2cc3ccc(Cl)cc3s2)CC1=O)NCCc1ccccn1`, 140 nM. As for `O=C(CN1CCN(S(=O)(=O)c2cc3ccc(Cl)cc3s2)CC1=O)NCCc1c[nH]c(S)n1`, the Ki in assay [1] amounted to 620 nM. The compound `O=C(CN1CCN(S(=O)(=O)c2cc3ccc(Cl)cc3s2)CC1=O)NC1CCNCC1` yielded a Ki in assay [1] of more than 1200 nM.

In assay [1], `O=C(CN1CCN(S(=O)(=O)c2cc3ccc(Cl)cc3s2)CC1=O)Nc1ccncc1` had a Ki of 170 nM. This lies in the sub-micromolar range.

As for `Cn1cccc1CCNC(=O)CN1CCN(S(=O)(=O)c2cc3ccc(Cl)cc3s2)CC1=O`, the Ki in assay [1] is more than 1200 nM. The compound `CN(C(=O)CN1CCN(S(=O)(=O)c2cc3ccc(Cl)cc3s2)CC1=O)c1ccncc1` yielded a Ki in assay [1] of more than 1200 nM. Regarding `O=C(CN1CCN(S(=O)(=O)c2cc3ccc(Cl)cc3s2)CC1=O)NCCc1cscn1`, affinity in assay [1] was put at a Ki of 160 nM. `Cc1[nH]cnc1CCNC(=O)CN1CCN(S(=O)(=O)c2cc3ccc(Cl)cc3s2)CC1=O` displayed a Ki in assay [1] of 340 nM. Still for that read-out and setting: for `COC(=O)[C@@H](Cc1cnc[nH]1)NC(=O)CN1CCN(S(=O)(=O)c2cc3ccc(Cl)cc3s2)CC1=O` the value was more than 1200 nM; for `O=C(CN1CCN(S(=O)(=O)c2cc3ccc(Cl)cc3s2)CC1=O)NCCc1cccnc1`, 250 nM; for `Nc1cc(CCNC(=O)CN2CCN(S(=O)(=O)c3cc4ccc(Cl)cc4s3)CC2=O)ccn1`, 140 nM. With `Cn1cncc1CCNC(=O)CN1CCN(S(=O)(=O)c2cc3ccc(Cl)cc3s2)CC1=O`, the Ki is more than 7300 nM in assay [2]; more than 8700 nM in assay [3]; more than 18000 nM in assay [4]; more than 4000 nM in assay [5]; 12 nM in assay [1]; more than 2900 nM in assay [6]. In assay [1], `COC(=O)[C@H](Cc1c[nH]cn1)NC(=O)CN1CCN(S(=O)(=O)c2cc3ccc(Cl)cc3s2)CC1=O` came in with a Ki of more than 1200 nM.

In turn, `Cn1cnc(CCNC(=O)CN2CCN(S(=O)(=O)c3cc4ccc(Cl)cc4s3)CC2=O)c1` had a Ki in assay [1] of 430 nM. That is a sub-micromolar value. Consider `O=C(CN1CCN(S(=O)(=O)c2cc3ccc(Cl)cc3s2)CC1=O)NCCc1cnc[nH]1`, for which the Ki in assay [7] was more than 2900 nM; in assay [2] it was more than 7300 nM; in assay [4], more than 18000 nM; in assay [5] it was more than 4000 nM; in assay [1], 21 nM; in assay [8], more than 8700 nM. For `O=C(CN1CCN(S(=O)(=O)c2cc3ccc(Cl)cc3s2)CC1=O)NCc1cccnc1`, the Ki in assay [1] was more than 1200 nM.
